System: Wheat (Triticum aestivum) seeds of the variety Arina
Experiment: Wheat assay (plant area and root curliness)
Assay type: in vivo
Conditions: wheat var. Arina seeds in mini-pouches with 5 mL compound solution; twelve days after sowing/application
Description: Two bioassays were developed in order to assay the activity of the compounds of the present invention. In the first assay, the activity of the compound was quantified in beans based on its effect on the elongation of the petiole of the second leaf. In the second assay, the compound's effect on the root growth of wheat was determined.
The test compounds were dissolved in small volumes of dimethyl sulfoxide and diluted to the appropriate concentration with water. Wheat (Triticum aestivum) seeds of the variety Arina were sown in mini-pouches (10.5×9.0 cm) containing 5 mL of the appropriate compound solution. The mini pouches were stored at 17° C. for three days to enable the seeds to germinate. Plants were then stored at 5° C. Twelve days after sowing/application, plants were removed from the mini-pouches and scanned. The effect of the compounds was quantified by determining plant (root and shoot) area and curliness of the roots (curliness is an indicator of brassinosteroid-type activity).

Which “curliness of the roots (indicator of brassinosteroid-type activity)” value (shortened to “curliness of the roots”) does the source give for `COC(=O)CCC(=O)Nc1ccc(C#N)cn1` [Compound A1, methyl 4-[(5-cyano-2-pyridyl)amino]-4-oxo-butanoate] here?
The value was “curly root phenotype”.

For `N#Cc1ccc(NC(=O)CCC(=O)O)nc1` [Compound A2, 4-[(5-cyano-2-pyridyl)amino]-4-oxo-butanoic acid], which “curliness of the roots” value is on record?
Its value is “curly root phenotype”.

With `O=C(O)CCC(=O)Nc1ccc(C(F)(F)F)cn1` [Compound A19, 4-oxo-4-[[5-(trifluoromethyl)-2-pyridyl]amino]butanoic acid] as the compound, how does the “curliness of the roots” value read?
Its value is “curly root phenotype”.

With `CCOC(=O)CCC(=O)Nc1ccc(C#N)cn1` [Compound A22, Ethyl 4-[(5-cyano-2-pyridyl)amino]-4-oxo-butanoate] as the compound, how does the “curliness of the roots” value read?
Its value is “curly root phenotype”.

For `CCOc1cc(NC(=O)CCC(=O)OC)ncc1Cl` [Compound A31, Methyl 4-[(5-chloro-4-ethoxy-2-pyridyl)amino]-4-oxo-butanoate], which “curliness of the roots” value is on record?
Its value is “curly root phenotype”.

Which “curliness of the roots” value does the source give for `CCOc1cc(NC(=O)CCC(=O)O)ncc1Cl` [Compound A32, 4-[(5-chloro-4-ethoxy-2-pyridyl)amino]-4-oxo-butanoic acid] here?
The value was “curly root phenotype”.

For `CCOc1cc(NC(=O)CCC(=O)OC)ncc1Br` [Compound A38, Methyl 4-[(5-bromo-4-ethoxy-2-pyridyl)amino]-4-oxo-butanoate], which “curliness of the roots” value is on record?
The value was “curly root phenotype”.

For `CCOc1cc(NC(=O)CCC(=O)O)ncc1Br` [Compound A39, 4-[(5-bromo-4-ethoxy-2-pyridyl)amino]-4-oxo-butanoic acid], which “curliness of the roots” value is on record?
Its value is “curly root phenotype”.

System: not given
Experiment: not given
Conditions: not given

With `COC(=O)CCC(=O)Nc1ccc(C#N)cn1` [Compound A1, methyl 4-[(5-cyano-2-pyridyl)amino]-4-oxo-butanoate] as the compound, how does the melting point read?
Its melting point is 161 to 164 °C.

Which melting point does the source give for `N#Cc1ccc(NC(=O)CCC(=O)O)nc1` [Compound A2, 4-[(5-cyano-2-pyridyl)amino]-4-oxo-butanoic acid] here?
The melting point was 220 to 221 °C.

For `N#Cc1cc(I)cnc1NC(=O)CCC(=O)O` [Compound A4, 4-[(3-cyano-5-iodo-2-pyridyl)amino]-4-oxo-butanoic acid], which melting point is on record?
Its melting point is 215 to 218 °C.

With `COC(=O)CCC(=O)Nc1ccc(-c2nnn[nH]2)cn1` [Compound A65, Methyl 4-oxo-4-[[5-(1H-tetrazol-5-yl)-2-pyridyl]amino]butanoate] as the compound, how does the melting point read?
The melting point was 246 to 248 °C.

With `COC(=O)C(C)(C)CC(=O)Nc1ccc(C#N)cn1` [Compound B1, Methyl 4-[(5-cyano-2-pyridyl)amino]-2,2-dimethyl-4-oxo-butanoate] as the compound, how does the melting point read?
The melting point was 129 °C.

From patent US9345244B2, “Plant growth regulating compounds” (Syngenta Participations AG, priority 2011, dated 2016)
